Patent US10988462B2, “Pyrazole compounds substituted with heteroaryl and pharmaceutical use thereof” (Japan Tobacco Inc., priority 2018, dated 2021)

Experiments:
Escherichia coli WP2uvrA = test: Ames test (reverse mutation test), pre-incubation method, strain WP2uvrA; format: cell-based; details: positive control; S9 mix −; dose 0.01 μg/plate
Source text: Ames Test (Reverse Mutation Test)
Two plates per treatment were used.

human SGLT1 = human SGLT1 (Homo sapiens (Human), UniProt P13866); test: SGLT1 inhibitory activity: intracellular uptake of 14C-AMG in human SGLT1-stably-expressing CHO-K1 cell line; format: cell-based; details: human SGLT1-stably-expressing CHO-K1 cells, 14C-AMG uptake; read-out: hSGLT1 IC50
Experimental: SGLT1 inhibitory activities of test compounds (IC50 values) were calculated based on the amount of intracellular uptake of labelled α-methyl-D-glucopyranoside (^14C-AMG) transported by SGLT1.
1) Formation of Human SGLT1-Expressing Plasmid
A DNA fragment containing human SGLT1 was amplified by PCR (Polymerase Chain Reaction) using pCMV6-hSGLT1 (OriGene) as a template. In the human SGLT1, NheI recognition and cleavage sequence was added to the upstream of Kozac consensus sequence derived from a vector, and a stop codon, TAG, and SalI recognition and cleavage sequence were added to the immediate downstream of the protein-translating region of human SGLT1. The purified DNA fragment was cleaved by restriction enzymes NheI and SalI, followed by ligation with pcDNA3.1 (+) which was cleaved by NheI and XhoI, thereby forming human SGLT1-expressing plasmid, pcDNA-hSGLT1. The nucleic acid sequence of human SGLT1 inserted into a vector was completely identical to the protein-translated region of human SGLT1 sequence (Accession number NM_000343) registered in GenBank, and the sequence of the portion connected to the vector was as expected.
2) Establishment of Human SGLT1-Stably-Expressing Cell Lines
Human SGLT-expressing plasmid, pcDNA-hSGLT1, was transfected into each CHO-K1 cell by Lipofectamine 2000 (Invitrogen) and cultured in the presence of G418 (Nacalai Tesque) to select drug-resistant cell lines. A cell line having the highest ratio (S/B ratio) of the amount of intracellular uptake of ^14C-AMG per cell to the amount of intracellular uptake of ^14C-AMG after treatment with a SGLT inhibitor, phlorizin, was selected as a human SGLT1-stably-expressing cell line from the drug-resistant cell lines.
3) Assessment of SGLT1 Inhibitory Activity
Human SGLT1-stably-expressing cell lines were seeded at 5×10^4 cells/well on BioCoat™ Poly-D-Lysine 96 well plate with Lid (Becton, Dickinson and Company) and cultured at 37° C. under 5% CO2 overnight. The medium was replaced with 100 μL/well of Na(−) buffer (140 mM choline chloride, 2 mM KCl, 1 mM MgCl2, 1 mM CaCl2, 10 mM HEPES, 5 mM Tris, pH 7.4), and then the mixture was let stand at 37° C. under 5% CO2 for 20 minutes. After removal of Na(−) buffer, thereto was added 40 μL/well of a test compound solution prepared with Na(+) buffer (140 mM NaCl, 2 mM KCl, 1 mM MgCl2, 1 mM CaCl2, 10 mM HEPES, 5 mM Tris, pH 7.4) comprising BSA. Then, thereto was added 40 μL/well of Na(+) buffer comprising 8 kBq of ^14C-AMG and 2 mM AMG, and the mixture was mixed well. For a blank, 40 μL/well of Na(−) buffer comprising BSA was added, and in addition, 40 μL/well of Na(−) buffer comprising 8 kBq of ^14C-AMG and 2 mM AMG was added, and the mixture was mixed well. After incubation by being let stand for 1 hour at 37° C. under 5% CO2, cells were washed twice with 100 μL/well of ice-cooled wash buffer (100 mM AMG, 140 mM choline chloride, 2 mM KCl, 1 mM MgCl2, 1 mM CaCl2, 10 mM HEPES, 5 mM Tris, pH 7.4) to terminate the reaction. A cell lysate was prepared by addition of 50 μL/well of 0.2N aqueous NaOH solution. In the assessment for the uptake ability of ^14C-AMG, the total amount of the cell lysate was transferred to OptiPlate 96 (Perkin-Elmer) with 100 μL/well of MicroScint-40 (Perkin-Elmer) dispensed and ^14C of CPM was measured with TOPCOUNT NXT (Perkin-Elmer).
Data was calculated by deducting the average value of CPM for blank well from the average value of CPM for each well treated. An inhibition rate for each test compound in each concentration was calculated from the following equation: [(A−B)/A]×100 wherein A is data for a solvent control and B is data for treatment with each test compound.

human SGLT1, sequence (P13866 whole entry): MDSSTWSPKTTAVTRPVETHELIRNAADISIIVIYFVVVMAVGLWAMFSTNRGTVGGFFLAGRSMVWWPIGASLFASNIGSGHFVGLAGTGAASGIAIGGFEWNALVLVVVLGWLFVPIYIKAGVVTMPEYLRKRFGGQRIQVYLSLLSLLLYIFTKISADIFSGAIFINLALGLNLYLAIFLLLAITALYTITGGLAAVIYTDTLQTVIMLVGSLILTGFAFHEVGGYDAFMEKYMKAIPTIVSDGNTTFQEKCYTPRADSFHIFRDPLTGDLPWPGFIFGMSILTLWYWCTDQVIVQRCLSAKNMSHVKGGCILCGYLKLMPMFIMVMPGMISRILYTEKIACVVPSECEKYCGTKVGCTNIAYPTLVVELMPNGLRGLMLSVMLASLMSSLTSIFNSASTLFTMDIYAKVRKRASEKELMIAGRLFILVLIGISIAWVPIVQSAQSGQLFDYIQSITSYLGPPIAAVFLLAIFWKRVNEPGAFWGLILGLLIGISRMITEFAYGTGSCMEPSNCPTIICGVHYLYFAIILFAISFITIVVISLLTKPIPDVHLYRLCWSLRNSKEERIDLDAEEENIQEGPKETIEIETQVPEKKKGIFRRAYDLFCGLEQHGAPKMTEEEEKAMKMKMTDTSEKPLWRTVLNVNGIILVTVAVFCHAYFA

With NC(=O)C(=Cc1ccc([N+](=O)[O-])o1)c1ccco1 [AF-2, 2-(2-Furyl)-3-(5-nitro-2-furyl)acrylamide, reference compound] as the molecule, how does the “Number of revertant colonies WP2uvrA” value (Escherichia coli WP2uvrA) read?
The value was 154.

With C[C@H]1C(=O)NC[C@@H]1C(=O)Nc1cc(-c2cc(F)cc(OC(C)(C)C(F)(F)F)c2)n(-c2cnc(C(F)(F)F)nc2)n1 [Example 1, (3R,4R)—N-(5-(3-fluoro-5-((1,1,1-trifluoro-2-methylpropan-2-yl)oxy)phenyl)-1-(2-(trifluoromethyl)pyrimidin-5-yl)-1H-pyrazol-3-yl)-4-methyl-5-oxopyrrolidine-3-carboxamide] as the molecule, how does the IC50 (human SGLT1) read?
The IC50 was 1.9 nM.

With C[C@H]1C(=O)NC[C@@H]1C(=O)Nc1cc(-c2cc(F)cc(OC(F)(F)F)c2)n(-c2cncc(F)c2)n1 [Example 2, (3R,4R)—N-(5-(3-fluoro-5-(trifluoromethoxy)phenyl)-1-(5-fluoropyridin-3-yl)-1H-pyrazol-3-yl)-4-methyl-5-oxopyrrolidine-3-carboxamide] as the molecule, how does the IC50 (human SGLT1) read?
Its IC50 is 14 nM.

With C[C@H]1C(=O)NC[C@@H]1C(=O)Nc1cc(-c2cc(F)cc(OC(F)(F)F)c2)n(-c2cncc(C(F)(F)F)c2)n1 [Example 3] as the molecule, how does the IC50 (human SGLT1) read?
Its IC50 is 8.6 nM.

How did the IC50 (human SGLT1) turn out when C[C@H]1C(=O)NC[C@@H]1C(=O)Nc1cc(-c2cc(F)cc(OC(C)(C)C)c2)n(-c2cnccn2)n1 [Example 4] was run?
Its IC50 is 23 nM.

With C[C@H]1C(=O)NC[C@@H]1C(=O)Nc1cc(-c2cccc(OC(F)(F)F)c2)n(-c2cncc(F)c2)n1 [Example 5] as the molecule, how does the IC50 (human SGLT1) read?
Its IC50 is 22 nM.

For C[C@H]1C(=O)NC[C@@H]1C(=O)Nc1cc(-c2cccc(OC(F)(F)F)c2)n(-c2cncc(Cl)c2)n1 [Example 6], which IC50 (human SGLT1) is on record?
Its IC50 is 9 nM.

For C[C@H]1C(=O)NC[C@@H]1C(=O)Nc1cc(-c2cccc(OC(F)(F)F)c2)n(-c2cncc(C(F)(F)F)c2)n1 [Example 7], which IC50 (human SGLT1) is on record?
The IC50 was 17 nM.

C[C@H]1C(=O)NC[C@@H]1C(=O)Nc1cc(-c2cc(F)cc(OC(C)(C)C(F)(F)F)c2)n(-c2ccnc(C(F)(F)F)n2)n1 [Example 9] was tested. Which IC50 (human SGLT1) did it give?
The IC50 was 73 nM.

Which IC50 (human SGLT1) does the source give for C[C@H]1C(=O)NC[C@@H]1C(=O)Nc1cc(-c2cc(F)cc(OC(C)(C)C(F)(F)F)c2)n(-c2cncc(C(F)(F)F)c2)n1 [Example 10] here?
Its IC50 is 1.2 nM.

C[C@H]1C(=O)NC[C@@H]1C(=O)Nc1cc(-c2cc(F)cc(OC(C)(C)C(F)(F)F)c2)n(-c2cccnc2C#N)n1 [Example 11] was tested. Which IC50 (human SGLT1) did it give?
Its IC50 is 8.4 nM.

C[C@H]1C(=O)NC[C@@H]1C(=O)Nc1cc(-c2cc(F)cc(OC(C)(C)C(F)(F)F)c2)n(-c2cccnc2C(F)(F)F)n1 [Example 12] was tested. Which IC50 (human SGLT1) did it give?
Its IC50 is 4.3 nM.

Which IC50 (human SGLT1) does the source give for C[C@H]1C(=O)NC[C@@H]1C(=O)Nc1cc(-c2cc(F)cc(OC(C)(C)C(F)(F)F)c2)n(-c2cnccc2C(F)(F)F)n1 [Example 13] here?
The IC50 was 2.9 nM.

Which IC50 (human SGLT1) does the source give for C[C@H]1C(=O)NC[C@@H]1C(=O)Nc1cc(-c2cc(F)cc(OC(C)(C)C(F)(F)F)c2)n(-c2cnccc2C#N)n1 [Example 14] here?
The IC50 was 3.7 nM.

How did the IC50 (human SGLT1) turn out when C[C@H]1C(=O)NC[C@@H]1C(=O)Nc1cc(-c2cc(F)cc(OC(C)(C)C(F)(F)F)c2)n(-c2cnc(C(F)(F)F)cn2)n1 [Example 15] was run?
Its IC50 is 6.1 nM.

How did the IC50 (human SGLT1) turn out when C[C@H]1C(=O)NC[C@@H]1C(=O)Nc1cc(-c2cc(F)cc(OC(C)(C)C(F)(F)F)c2)n(-c2nccc(C(F)(F)F)n2)n1 [Example 16] was run?
Its IC50 is 83 nM.

With C[C@H]1C(=O)NC[C@@H]1C(=O)Nc1cc(-c2cc(F)cc(OC(C)(C)C(F)(F)F)c2)n(-c2cncc(Cl)c2)n1 [Example 17] as the molecule, how does the IC50 (human SGLT1) read?
The IC50 was 1.3 nM.

With C[C@H]1C(=O)NC[C@@H]1C(=O)Nc1cc(-c2cc(F)cc(OC(C)(C)C(F)(F)F)c2)n(-c2cncc(C(F)(F)F)n2)n1 [Example 18] as the molecule, how does the IC50 (human SGLT1) read?
The IC50 was 29 nM.

With C[C@H]1C(=O)NC[C@@H]1C(=O)Nc1cc(-c2cc(F)cc(OC(C)(C)C(F)(F)F)c2)n(-c2nccnc2C(F)(F)F)n1 [Example 19] as the molecule, how does the IC50 (human SGLT1) read?
The IC50 was 29 nM.

For C[C@H]1C(=O)NC[C@@H]1C(=O)Nc1cc(-c2cc(F)cc(OC(C)(C)C(F)(F)F)c2)n(-c2ccc(C(F)(F)F)nc2)n1 [Example 20], which IC50 (human SGLT1) is on record?
The IC50 was 1.2 nM.

C[C@H]1C(=O)NC[C@@H]1C(=O)Nc1cc(-c2cc(F)cc(OC(C)(C)C(F)(F)F)c2)n(-c2cncc(F)c2)n1 [Example 21] was tested. Which IC50 (human SGLT1) did it give?
The IC50 was 1.2 nM.

For C[C@H]1C(=O)NC[C@@H]1C(=O)Nc1cc(-c2cc(F)cc(OC(C)(C)C(F)(F)F)c2)n(-c2cncnc2)n1 [Example 22], which IC50 (human SGLT1) is on record?
Its IC50 is 3.4 nM.

With C[C@H]1C(=O)NC[C@@H]1C(=O)Nc1cc(-c2cc(F)cc(OC(C)(C)C(F)(F)F)c2)n(-c2cnccn2)n1 [Example 23] as the molecule, how does the IC50 (human SGLT1) read?
The IC50 was 11 nM.

With C[C@H]1C(=O)NC[C@@H]1C(=O)Nc1cc(-c2cc(F)cc(OC(C)(C)C(F)(F)F)c2)n(-c2ccc(C(F)(F)F)cn2)n1 [Example 24] as the molecule, how does the IC50 (human SGLT1) read?
Its IC50 is 5.3 nM.

How did the IC50 (human SGLT1) turn out when C[C@H]1C(=O)NC[C@@H]1C(=O)Nc1cc(-c2cc(F)cc(OCC(F)(F)F)c2)n(-c2cnc(C(F)(F)F)nc2)n1 [Example 25] was run?
Its IC50 is 5.7 nM.

How did the IC50 (human SGLT1) turn out when C[C@H]1C(=O)NC[C@@H]1C(=O)Nc1cc(-c2cccc(OC(F)(F)F)c2)n(-c2cnc(C(F)(F)F)nc2)n1 [Example 26] was run?
The IC50 was 47 nM.

How did the IC50 (human SGLT1) turn out when C[C@H]1C(=O)NC[C@@H]1C(=O)Nc1cc(-c2cc(F)cc(OC(F)(F)F)c2)n(-c2cnc(C(F)(F)F)nc2)n1 [Example 27] was run?
The IC50 was 30 nM.

C[C@H]1C(=O)NC[C@@H]1C(=O)Nc1cc(-c2cc(F)cc(OC(F)(F)F)c2)n(-c2ccc(C(F)(F)F)nc2)n1 [Example 28] was tested. Which IC50 (human SGLT1) did it give?
The IC50 was 7.2 nM.

How did the IC50 (human SGLT1) turn out when C[C@H]1C(=O)NC[C@@H]1C(=O)Nc1cc(-c2cc(F)cc(OC(F)(F)F)c2)n(-c2cncnc2)n1 [Example 29] was run?
Its IC50 is 52 nM.

Which IC50 (human SGLT1) does the source give for C[C@H]1C(=O)NC[C@@H]1C(=O)Nc1cc(-c2cc(F)cc(OC(F)(F)F)c2)n(-c2cncc(Cl)c2)n1 [Example 30] here?
Its IC50 is 2.7 nM.

How did the IC50 (human SGLT1) turn out when C[C@H]1C(=O)NC[C@@H]1C(=O)Nc1cc(-c2cc(F)cc(OCC(F)(F)F)c2)n(-c2cncc(C(F)(F)F)c2)n1 [Example 31] was run?
Its IC50 is 5.7 nM.

How did the IC50 (human SGLT1) turn out when C[C@H]1C(=O)NC[C@@H]1C(=O)Nc1cc(-c2cc(F)cc(OCC(F)(F)F)c2)n(-c2cncnc2)n1 [Example 32] was run?
The IC50 was 69 nM.

With C[C@H]1C(=O)NC[C@@H]1C(=O)Nc1cc(-c2cc(F)cc(OCC(F)(F)F)c2)n(-c2ccc(C(F)(F)F)nc2)n1 [Example 33] as the molecule, how does the IC50 (human SGLT1) read?
Its IC50 is 5.9 nM.

C[C@H]1C(=O)NC[C@@H]1C(=O)Nc1cc(-c2cc(F)cc(OCC(F)(F)F)c2)n(-c2cncc(F)c2)n1 [Example 34] was tested. Which IC50 (human SGLT1) did it give?
Its IC50 is 9.8 nM.

How did the IC50 (human SGLT1) turn out when C[C@H]1C(=O)NC[C@@H]1C(=O)Nc1cc(-c2cc(F)cc(OCC(F)(F)F)c2)n(-c2cncc(Cl)c2)n1 [Example 35] was run?
Its IC50 is 4.6 nM.

For COc1ncc(-n2nc(NC(=O)[C@H]3CNC(=O)[C@@H]3C)cc2-c2cc(F)cc(OC(C)(C)C(F)(F)F)c2)cn1 [Example 36], which IC50 (human SGLT1) is on record?
Its IC50 is 1.9 nM.

For C[C@H]1C(=O)NC[C@@H]1C(=O)Nc1cc(-c2cc(F)cc(OC(C)(C)C(F)(F)F)c2)n(-c2cnc(N(C)C)nc2)n1 [Example 37], which IC50 (human SGLT1) is on record?
The IC50 was 0.98 nM.

How did the IC50 (human SGLT1) turn out when Cc1ncc(-n2nc(NC(=O)[C@H]3CNC(=O)[C@@H]3C)cc2-c2cc(F)cc(OC(C)(C)C(F)(F)F)c2)cn1 [Example 38] was run?
Its IC50 is 4 nM.
